The text below walks through data of US10821115B2, “Compounds that inhibit Mcl-1 protein” (priority 2017, dated 2020).

The test system of experiment [1] is human multiple myeloma cell line, OPM-2. The experiment can be described thus: Cell viability assay (OPM-2 10 FBS), CellTiter-Glo. Format: cell-based. Summed up: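 Serially diluted test compounds are incubated 16 h with cells (3000/well) in RPMI 1640 supplemented with 10% FBS. Viability is then measured by luminescence and IC50 calculated by 4-parameter logistic fit.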
On the technique in general: Cellular ATP, detected with luciferase, serves as a proxy for viable cell number.

Experiment [2] addresses recombinant human Mcl-1 (residues 171-327) / Bim interaction (Homo sapiens (Human), UniProt Q07820). Nature of the experiment: biochemical. Format: binding. The note with it: read-out: Mcl-1 HTRF IC50. Background: In TR-FRET formats the signal depends on donor and acceptor labels being close together.
The mark [3] stands for this setting: read-out: OPM-2 10% FBS IC50 IP, OPM-2 cells, 10% FBS, 16 h incubation.
Where [4] appears, read: 0.1 nM Mcl-1(171-327), 0.05 nM biotin-Bim (51-76).
The mark [5] stands for this setting: Homo sapiens, OPM-2, 16 h, read-out: OPM-2 10% FBS IC50 IP, OPM-2 cells, 10% FBS, 16 h, CellTiter-Glo.
Setting [6] is: TR-FRET, Mcl-1(171-327) / biotin-Bim (51-76).
Where [7] appears, read: Homo sapiens, OPM-2, 16 h, read-out: OPM-2 10% FBS IC50 IP, OPM-2 cells, 10% FBS, 16 h incubation.
[8] abbreviates: read-out: OPM-2 10% FBS IC50 IP, OPM-2 cells, 10% FBS, 16 h, CellTiter-Glo.

Where two headings read alike, the source gives them in different places.

In general, IC50 refers to the concentration at which inhibition is half-maximal.

recombinant human Mcl-1 (residues 171-327) / Bim interaction, sequence (Q07820 171-327): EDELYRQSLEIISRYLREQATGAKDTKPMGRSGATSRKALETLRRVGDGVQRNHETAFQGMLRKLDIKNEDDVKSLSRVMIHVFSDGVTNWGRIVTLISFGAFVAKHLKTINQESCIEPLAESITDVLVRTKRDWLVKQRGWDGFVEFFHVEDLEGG

Regarding “(1S,3′R,6′R,7′S,8′E,11′S,12′R)-6-chloro-7′-(2-methoxyethoxy)-11′,12′-dimethyl-7′-((9aR)-octahydro-2H-pyrido[1,2-a]pyrazin-2-ylmethyl)-3,4-dihydro-2H, 15′H-spiro[naphthalene-1,22′-[20]oxa[13]thia[1,14]diazatetracyclo[14.7.2.0-3,6˜.0˜19,24˜]pentacosa[8,16,18,24]tetraen]-15′-one 13′,13′-dioxide [Example 151]”, the IC50 came out at 462 nM in experiment [1] (setting [3]) and 0.843 nM in experiment [2] (setting [4]).

Turning to `CO[C@@]1(CC(=O)NCCCl)/C=C/C[C@H](C)[C@@H](C)S(=O)(=O)NC(=O)c2ccc3c(c2)N(C[C@@H]2CC[C@H]21)C[C@@]1(CCCc2cc(Cl)ccc21)CO3` [Example 100509, N-(2-chloroethyl)-2-((1S,3′R,6′R,7′S,8′E,11′S,12′R)-6-chloro-7′-methoxy-11′,12′-dimethyl-13′,13′-dioxido-15′-oxo-3,4-dihydro-2H-spiro[naphthalene-1,22′-[20]oxa[13]thia[1,14]diazatetracyclo [14.7.2.0~3,6~.0~19,24~]pentacosa[8,16,18,24]tetraen]-7′-yl)acetamide], the IC50 in experiment [1] (setting [5]) is 361 nM; in experiment [2] (setting [6]), 0.057 nM.

`CON(C)C[C@]1(OC)/C=C/C[C@H](C)[C@@H](C)S(=O)(=O)NC(=O)c2ccc3c(c2)N(C[C@@H]2CC[C@H]21)C[C@@]1(CCCc2cc(Cl)ccc21)CO3` [Example 212, (1S,3′R,6′R,7′S,8′E,11′S,12′R)-6-chloro-7′-methoxy-7′-((methoxy(methyl)amino)methyl)-11′,12′-dimethyl-3,4-dihydro-2H,15′H-spiro[naphthalene-1,22′-[20]oxa[13]thia[1,14]diazatetracyclo [14.7.2.0~3,6~.0~19,24~]pentacosa[8,16,18,24]tetraen]-15′-one 13′,13′-dioxide]: the IC50 in experiment [1] (setting [7]) is 307 nM; in experiment [2] (setting [4]), 0.122 nM.

As for `CO[C@@]1(CN2CCN3CCOC[C@@H]3C2)/C=C/C[C@H](C)[C@@H](CC2CCC2)S(=O)(=O)NC(=O)c2ccc3c(c2)N(C[C@@H]2CC[C@H]21)C[C@@]1(CCCc2cc(Cl)ccc21)CO3` [Example 39, (1S,3′R,6′R,7′S,8′E,11′S,12′R)-6-chloro-12′-(cyclobutylmethyl)-7′-((9aS)-hexahydropyrazino[2,1-c][1,4]oxazin-8(1H)-ylmethyl)-7′-methoxy-11′-methyl-3,4-dihydro-2H,15′H-spiro[naphthalene-1,22′-[20]oxa[13]thia[1,14]diazatetracyclo [14.7.2.0~3,6~.0~19,24~]pentacosa[8,16,18,24]tetraen]-15′-one 13′,13′-dioxide], the IC50 in experiment [1] (setting [7]) amounted to 389 nM; in experiment [2] (setting [4]), 0.377 nM.

`CCOC1(CN2CCN(C(C)C)CC2)/C=C/C[C@H](C)[C@@H](C)S(=O)(=O)NC(=O)c2ccc3c(c2)N(C[C@@H]2CC[C@H]21)C[C@@]1(CCCc2cc(Cl)ccc21)CO3` (stereo in doubt) [Example 115, (1S,3′R,6′R,7′R,8′E,11′S,12′R)-6-chloro-7′-ethoxy-11′,12′-dimethyl-7′-((4-(1-methylethyl)-1-piperazinyl)methyl)-3,4-dihydro-2H,15′H-spiro[naphthalene-1,22′-[20]oxa[13]thia[1,14]diazatetracyclo [14.7.2.0~3,6~.0~19,24~]pentacosa[8,16,18,24]tetraen]-15′-one 13′,13′-dioxide]: the figures for the IC50 in experiment [1] (setting [7]) and in experiment [2] (setting [4]) were 686 nM and 1.37 nM, respectively.

Consider `CO[C@@]1(CN2CCN3CCN(C(=O)CCS(=O)(=O)c4ccccc4)C[C@@H]3C2)/C=C/C[C@H](C)[C@@H](C)S(=O)(=O)NC(=O)c2ccc3c(c2)N(C[C@@H]2CC[C@H]21)C[C@@]1(CCCc2cc(Cl)ccc21)CO3` [Example 233], for which the 50% inhibitory concentration (IC50) in experiment [1] (setting [3]) came to 202 nM; in experiment [2] (setting [4]) it was 0.516 nM.

For the compound `CO[C@@]1(CC(=O)N2CCC2)/C=C/C[C@H](C)[C@@H](C)S(=O)(=O)NC(=O)c2ccc3c(c2)N(C[C@@H]2CC[C@H]21)C[C@@]1(CCCc2cc(Cl)ccc21)CO3` [Example 100006, (1 S,3′R,6′R,7′S,8′E,11′S,12′R)-7′-(2-(1-azetidinyl)-2-oxoethyl)-6-chloro-7′-methoxy-1′,12′-dimethyl-3,4-dihydro-2H, 15′H-spiro[naphthalene-1,22′-[20]oxa[13]thia[1,14]diazatetracyclo[14.7.2.0-3,6˜.0˜19,24˜]pentacosa[8,16,18,24]tetraen]-15′-one 13′,13′-dioxide], the values for the half-inhibitory concentration (IC50) in experiment [1] (setting [5]) and in experiment [2] (setting [6]) were 131 nM and 0.081 nM, respectively.

Take `C[C@@H]1[C@@H](C)CCC[C@@](O)([C@@H]2CCN(C)C2=O)[C@@H]2CC[C@H]2CN2C[C@@]3(CCCc4cc(Cl)ccc43)COc3ccc(cc32)C(=O)NS1(=O)=O` [Example 100203, (1S,3′R,6′R,7′S,11′S,12′R)-6-chloro-7′-hydroxy-11′,12′-dimethyl-7′-((3S)-1-methyl-2-oxo-3-pyrrolidinyl)-3,4-dihydro-2H,15′H-spiro[naphthalene-1,22′-[20]oxa[13]thia[1,14]diazatetracyclo [14.7.2.0~3,6~.0~19,24~]pentacosa[16,18,24]trien]-15′-one 13′,13′-dioxide]: the IC50 in experiment [1] (setting [8]) was found to be 491 nM; in experiment [2] (setting [6]), 0.285 nM.

Regarding `CO[C@@]1(CS(C)(=O)=O)/C=C/C[C@H](C)[C@@H](C)S(=O)(=O)NC(=O)c2ccc3c(c2)N(C[C@@H]2CC[C@H]21)C[C@@]1(CCCc2cc(Cl)ccc21)CO3` [Example 100459, (1S,3′R,6′R,7′S,8′E,11′S,12′R)-6-chloro-7′-methoxy-11′,12′-dimethyl-7′-((methylsulfonyl)methyl)-3,4-dihydro-2H,15′H-spiro[naphthalene-1,22′-[20]oxa[13]thia[1,14]diazatetracyclo [14.7.2.0~3,6~.0~19,24~]pentacosa[8,16,18,24]tetraen]-15′-one 13′,13′-dioxide], the values for the IC50 in experiment [1] (setting [5]) and in experiment [2] (setting [6]) were 732 nM and 0.685 nM, respectively.

Consider `CO[C@@]1(CC(=O)N(C)C)/C=C/C[C@H](C)[C@@H](C)S(=O)(=O)NC(=O)c2ccc3c(c2)N(C[C@@H]2CC[C@H]21)C[C@@]1(CCCc2cc(Cl)ccc21)CO3` [Example 100002, 2-((1 S,3′R,6′R,7′S,8′E,11′S, 12′R)-6-chloro-7′-methoxy-11′,12′-dimethyl-13′,13′-dioxido-15′-oxo-3,4-dihydro-2H-spiro[naphthalene-1,22′-[20]oxa[13]thia[1,14]diazatetracyclo[14.7.2.0-3,6˜.0˜19,24˜]pentacosa[8,16,18,24]tetraen]-7′-yl)-N,N-dimethylacetamide], for which the 50% inhibitory concentration (IC50) was found to be 41 nM in experiment [1] (setting [8]) and 0.071 nM in experiment [2] (setting [6]).

As to `C=C(F)C[C@]1(O)/C=C/C[C@H](C)[C@@H](C)S(=O)(=O)NC(=O)c2ccc3c(c2)N(C[C@@H]2CC[C@H]21)C[C@@]1(CCCc2cc(Cl)ccc21)CO3` [Example 100565, (1S,3′R,6′R,7′S,8′E,11′S,12′R)-6-chloro-7′-(2-fluoro-2-propen-1-yl)-7′-hydroxy-11′,12′-dimethyl-3,4-dihydro-2H,15′H-spiro[naphthalene-1,22′-[20]oxa[13]thia[1,14]diazatetracyclo [14.7.2.0~3,6~.0~19,24~]pentacosa[8,16,18,24]tetraen]-15′-one 13′,13′-dioxide], the IC50 in experiment [1] (setting [5]) stood at 2060 nM; in experiment [2] (setting [6]), 1.54 nM.

On to `CCN1[C@H](C)CN(C[C@@]2(OC)/C=C/C[C@H](C)[C@@H](C)S(=O)(=O)NC(=O)c3ccc4c(c3)N(C[C@@H]3CC[C@H]32)C[C@@]2(CCCc3cc(Cl)ccc32)CO4)C[C@@H]1C` [Example 341, (1S,3′R,6′R,7′R,8′E,11′S,12′R)-6-chloro-7′-(((3R,5S)-4-ethyl-3,5-dimethyl-1-piperazinyl)methyl)-7′-methoxy-11′,12′-dimethyl-3,4-dihydro-2H,15′H-spiro[naphthalene-1,22′-[20]oxa[13]thia[1,14]diazatetracyclo [14.7.2.0~3,6~.0~19,24~]pentacosa[8,16,18,24]tetraen]-15′-one 13′,13′-dioxide], for which the IC50 in experiment [1] (setting [7]) turned out to be 42 nM; in experiment [2] (setting [4]), 0.052 nM.

On to `COCCN(C)C(=O)C[C@]1(O)CCC[C@H](C)[C@@H](C)S(=O)(=O)NC(=O)c2ccc3c(c2)N(C[C@@H]2CC[C@H]21)C[C@@]1(CCCc2cc(Cl)ccc21)CO3` [Example 100140, 2-((1S,3′R,6′R,7′R,11′S,12′R)-6-chloro-7′-hydroxy-11′,12′-dimethyl-13′,13′-dioxido-15′-oxo-3,4-dihydro-2H-spiro[naphthalene-1,22′-[20]oxa[13]thia[1,14]diazatetracyclo [14.7.2.0~3,6~.0~19,24~]pentacosa[16,18,24]trien]-7′-yl)-N-(2-methoxyethyl)-N-methylacetamide], for which the IC50 in experiment [1] (setting [8]) was 299 nM; in experiment [2] (setting [6]), 0.486 nM.

Turning to `CO[C@]1(CN2C[C@@H](C)N[C@@H](C)C2)/C=C/C[C@H](C)[C@@H](C)S(=O)(=O)NC(=O)c2ccc3c(c2)N(C[C@@H]2CC[C@H]21)C[C@@]1(CCCc2cc(Cl)ccc21)CO3` [Example 329, (1S,3′R,6′R,7′R,8′E,11′S,12′R)-6-chloro-7′-(((3R,5S)-3,5-dimethyl-1-piperazinyl)methyl)-7′-methoxy-11′,12′-dimethyl-3,4-dihydro-2H,15′H-spiro[naphthalene-1,22′-[20]oxa[13]thia[1,14]diazatetracyclo [14.7.2.0~3,6~.0~19,24~]pentacosa[8,16,18,24]tetraen]-15′-one 13′,13′-dioxide], the results for the IC50 in experiment [1] (setting [7]) and in experiment [2] (setting [4]) were 243 nM and 0.137 nM, respectively.
